Assay results as given in paper PMC11981937 (Nature, 2025).
Read-outs that look alike come from different tables or passages of the source.

Assays:
Format in all cases: cell-based
SARS-CoV-2 Delta variant = assay: microbe, parasite or virus in culture; conditions: Severe acute respiratory syndrome coronavirus 2; SARS-CoV-2 Delta B.1.617.1
[1] = system: SARS-CoV-2 Omicron BA.1 variant; assay: microbe, parasite or virus in culture; conditions: Severe acute respiratory syndrome coronavirus 2, SARS-CoV-2 Omicron B.1.1.529
SARS-CoV-2 (B1 variant) = assay: microbe, parasite or virus in culture; conditions: Severe acute respiratory syndrome coronavirus 2, 48 h
SARS-CoV-2_M:A85S = system: SARS-CoV-2_M:A85S
SARS-CoV-2_M:W55F = system: SARS-CoV-2_M:W55F
SARS-CoV-2 M:A98D = system: SARS-CoV-2 M:A98D
SARS-CoV-2_M:L90W = system: SARS-CoV-2_M:L90W
SARS-CoV-2_M:L29F = system: SARS-CoV-2_M:L29F
SARS-CoV-2_M:Q185K = system: SARS-CoV-2_M:Q185K
SARS-CoV-2_M:M91K = system: SARS-CoV-2_M:M91K
[2] = read-out: EC50, production of viral RNA
[3] = read-out: EC90, production of viral RNA

C[C@H]1Cn2ncc(C(=O)Nc3cccc(C#N)c3)c2C(=O)N1c1ccc(C(F)(F)c2ccccc2)cc1 [JNJ-9676, (S)-N-(3-cyanophenyl)-5-(4-(difluoro(phenyl)methyl)phenyl)-6-methyl-4-oxo-4,5,6,7-tetrahydropyrazolo[1,5-a]pyrazine-3-carboxamide]
EC50 (SARS-CoV-2 Delta variant): 0.014 µM
EC50 [1]: 0.026 µM
EC50 (SARS-CoV-2 (B1 variant); [2]): 0.094 ± 0.0034 µM
EC90 (SARS-CoV-2 (B1 variant); [3]): 0.132 ± 0.0367 µM
Potency shift (EC50 fold change ± SD vs recombinant WT virus) (SARS-CoV-2_M:A85S): 0.64 ± 0.21 fold change
Potency shift (EC50 fold change ± SD vs recombinant WT virus) (SARS-CoV-2_M:W55F): 0.62 ± 0.26 fold change
Potency shift (EC50 fold change ± SD vs recombinant WT virus) (SARS-CoV-2 M:A98D): 2.02 ± 0.58 fold change
Potency shift (EC50 fold change ± SD vs recombinant WT virus) (SARS-CoV-2_M:L90W): 2.47 ± 1.48 fold change
Potency shift (EC50 fold change ± SD vs recombinant WT virus) (SARS-CoV-2_M:L29F): 5.57 ± 0.42 fold change
Potency shift (EC50 fold change ± SD vs recombinant WT virus) (SARS-CoV-2_M:Q185K): 5.55 ± 1.92 fold change
Potency shift (EC50 fold change ± SD vs recombinant WT virus) (SARS-CoV-2_M:M91K): 10.03 ± 3.28 fold change

CC(C)(C)[C@H](NC(=O)C(F)(F)F)C(=O)N1C[C@H]2[C@@H]([C@H]1C(=O)N[C@H](C#N)C[C@@H]1CCNC1=O)C2(C)C [nirmatrelvir, reference compound]
EC50 (SARS-CoV-2 (B1 variant); read-out: EC50, RNA copy numbers (printed in Fig. 1c)): 0.109 µM
EC50 (SARS-CoV-2 (B1 variant); [2]): 0.109 ± 0.0556 µM
EC90 (SARS-CoV-2 (B1 variant); read-out: EC90, RNA copy numbers (printed in Fig. 1c)): 0.268 µM
EC90 (SARS-CoV-2 (B1 variant); [3]): 0.268 ± 0.112 µM
